Test systems include IGROV1 ovarian; LOX IMVI melanoma; A549 NSCLC; HS 578T breast; MDA-MB-435; SK-MEL-2 melanoma; OVCAR-8 ovarian; HOP-92 NSCLC; M14 melanoma; RXF 393 renal.
Assay in all cases: DTP human tumour cell line panel, 48 h

Our source for the GI50 and TGI values is PubChem BioAssay (NCI).

The structures appear in SMILES notation. Values joined by “and” are separate entries in the source; they are usually repeats but may differ in a detail not shown here. Equal entries are not always repeated.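 Cells were grown in 96-well plates and exposed to each compound for 48 hours at five concentrations; endpoints were interpolated linearly between bracketing concentrations, or set to the highest concentration if not reached. GI50: concentration for 50% inhibition of growth. The concentration for full growth arrest is given as TGI.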 *1 amine or outer side, *2 acyl side, *3 side chain or, on linkers, in order; H or OH if unused. Where a SMILES comes first, the peptide text is derived from it. Bridges are numbered along the chain shown (N, C = ends). Roman numbers before positions name the chains, in order. [ ]: non-standard residue; d: D form. Actinocin(9to1) = Cc1c2oc3c(C)ccc(C(=O)[*:1])c3nc-2c(C(=O)[*:2])c(N)c1=O; NMeH = CN[CH](Cc1c[nH]cn1)C(=O)O; Sar = CNCC(=O)O

Consider `O=C1NC(N/N=C\C(O)C(O)C(O)C(O)CO)=N/C1=C/c1ccccc1` (centres undefined), for which the GI50 in the test with IGROV1 ovarian is > 100 µM and 16.2 µM; in the test on LOX IMVI melanoma, > 100 µM and 17.7 µM; in the test on A549 NSCLC, > 100 µM and 19 µM; with HS 578T breast, > 100 µM and 24.6 µM; in the test on MDA-MB-435, 85.7 µM and 15.7 µM and > 100 µM; in the test with SK-MEL-2 melanoma, > 100 µM and 16.6 µM. Besides, the GI50 in the test on OVCAR-8 ovarian is > 100 µM and 22.8 µM; with HOP-92 NSCLC, 60.1 µM and 15.5 µM and > 100 µM; in the test on M14 melanoma, 52.6 µM and 15.4 µM and > 100 µM; in the test with RXF 393 renal, > 100 µM and 21.7 µM. Moreover, the TGI in the test with IGROV1 ovarian was > 100 µM and 33.3 µM; in the test on LOX IMVI melanoma it was > 100 µM and 36.4 µM; in the test with A549 NSCLC it was > 100 µM and 45.7 µM; in the test with HS 578T breast, > 100 µM and 73.4 µM; with MDA-MB-435, > 100 µM and 34.9 µM; in the test on SK-MEL-2 melanoma it was > 100 µM and 32.7 µM. The total growth inhibition concentration (TGI) in the test with OVCAR-8 ovarian was > 100 µM and 52.5 µM; in the test with HOP-92 NSCLC, > 100 µM and 33.9 µM; in the test on M14 melanoma, > 100 µM and 31.6 µM; in the test on RXF 393 renal, > 100 µM and 44 µM.
For `COC(=O)c1cc(-c2ccccc2)[nH]c1N/N=C/c1c(Cl)cccc1Cl`, the GI50 in the test on IGROV1 ovarian was 0.412 µM; in the test on LOX IMVI melanoma it was 0.602 µM; in the test on A549 NSCLC it was 0.501 µM; in the test on HS 578T breast it was 0.221 µM; in the test with MDA-MB-435 it was 0.0311 µM; with SK-MEL-2 melanoma, 0.615 µM. Besides, the GI50 with OVCAR-8 ovarian was 0.473 µM; in the test with HOP-92 NSCLC, 0.609 µM; in the test with M14 melanoma, 0.24 µM; with RXF 393 renal it was 0.616 µM. The TGI in the test on LOX IMVI melanoma was 17.7 µM; in the test with A549 NSCLC, greater than 44.1 µM; in the test on HS 578T breast, 3.5 µM; in the test with MDA-MB-435 it was 0.119 µM; in the test with SK-MEL-2 melanoma it was 17.2 µM; in the test on OVCAR-8 ovarian, greater than 100 µM. Also, the total growth inhibition concentration (TGI) in the test on HOP-92 NSCLC is 17.5 µM; in the test with M14 melanoma, 1.37 µM; in the test on RXF 393 renal, 52 µM.
Take `Cc1c2oc3c(C)ccc(C(=O)NC4C(=O)NC(C(C)C)C(=O)N5CCCC5C(=O)N(C)CC(=O)N(C)C(Cc5cnc[nH]5)C(=O)OC4C)c3nc-2c(C(=O)NC2C(=O)NC(C(C)C)C(=O)N3CCCC3C(=O)N(C)CC(=O)N(C)C(Cc3cnc[nH]3)C(=O)OC2C)c(N)c1=O` (centres undefined) (I: TVP[Sar][NMeH] / II: TVP[Sar][NMeH]; ester I:1-I:C, II:1-II:C; linker I:N-II:N via Actinocin(9to1); configuration not given here): the TGI in the test with IGROV1 ovarian, in the test with LOX IMVI melanoma, in the test on A549 NSCLC, with HS 578T breast, in the test on MDA-MB-435 and in the test on SK-MEL-2 melanoma was greater than 100 µM in each case. Moreover, the TGI is greater than 100 µM in the test with OVCAR-8 ovarian, greater than 100 µM in the test on HOP-92 NSCLC, greater than 100 µM in the test on M14 melanoma and 51.9 µM with RXF 393 renal.
As to `COc1ccc([C@H](CC(=O)O)N2CCN(CCCc3ccc4c(n3)NCCC4)C2=O)cn1`, the GI50 is greater than 38.1 µM in the test on IGROV1 ovarian; 0.715 µM with LOX IMVI melanoma; 3.07 µM in the test with A549 NSCLC; 7.15 µM with HS 578T breast; 0.0216 µM in the test on MDA-MB-435; 0.0331 µM in the test on SK-MEL-2 melanoma. Further, the concentration for 50% growth inhibition (GI50) in the test with OVCAR-8 ovarian was 0.277 µM; in the test with HOP-92 NSCLC, 0.0348 µM; in the test on M14 melanoma, greater than 100 µM; in the test on RXF 393 renal it was 0.136 µM. Further, the TGI is greater than 100 µM with IGROV1 ovarian; 4.23 µM in the test with LOX IMVI melanoma; greater than 30.3 µM in the test with A549 NSCLC; greater than 100 µM in the test with HS 578T breast; 0.0602 µM with MDA-MB-435; 0.237 µM with SK-MEL-2 melanoma. The TGI was greater than 40 µM in the test on OVCAR-8 ovarian, 0.159 µM in the test with HOP-92 NSCLC, greater than 100 µM in the test on M14 melanoma and greater than 100 µM in the test on RXF 393 renal.
As to `CC1=CC2C(C(O)CC3(C)C2CC(C)C32OCOC23COCO3)C2(C)C/C(=C/O)C(=O)C=C12` (centres undefined), the GI50 was 2.07 µM in the test with IGROV1 ovarian; 1.75 µM in the test with LOX IMVI melanoma; 3.02 µM with A549 NSCLC; 2.28 µM with HS 578T breast; 1.78 µM in the test with MDA-MB-435; 1.97 µM in the test on SK-MEL-2 melanoma. For the same compound, the GI50 in the test with OVCAR-8 ovarian is 1.76 µM; in the test with HOP-92 NSCLC, 1.78 µM; in the test with M14 melanoma, 1.66 µM; in the test with RXF 393 renal, 1.81 µM. The TGI was 4 µM in the test on IGROV1 ovarian; 3.31 µM in the test on LOX IMVI melanoma; 10.7 µM with A549 NSCLC; 5.72 µM in the test on HS 578T breast; 3.64 µM with MDA-MB-435; 3.8 µM with SK-MEL-2 melanoma. Besides, the concentration for total growth inhibition (TGI) in the test on OVCAR-8 ovarian is 3.73 µM; in the test with HOP-92 NSCLC, 3.45 µM; in the test with M14 melanoma, 3.51 µM; with RXF 393 renal it was 3.31 µM.
`O=[N+]([O-])c1cccc(/C=N/NC2=CS(=O)(=O)C=C2)c1`: the TGI with IGROV1 ovarian, with LOX IMVI melanoma, in the test on A549 NSCLC, with HS 578T breast, with MDA-MB-435 and with SK-MEL-2 melanoma was greater than 100 µM in each case. Besides, the TGI in the test with OVCAR-8 ovarian, in the test with HOP-92 NSCLC, with M14 melanoma and with RXF 393 renal was greater than 100 µM throughout.
As for `O=C1CCc2c(sc3[nH]c(=S)n(-c4cc(C(F)(F)F)cc(C(F)(F)F)c4)c(=O)c23)C1`, the GI50 was 0.446 µM with IGROV1 ovarian; 0.392 µM in the test on LOX IMVI melanoma; 0.707 µM with A549 NSCLC; 0.339 µM in the test with HS 578T breast; 1.22 µM with MDA-MB-435; 0.721 µM in the test on SK-MEL-2 melanoma. Besides, the GI50 with OVCAR-8 ovarian was 0.457 µM; with HOP-92 NSCLC, 0.205 µM; with M14 melanoma it was 0.463 µM; in the test on RXF 393 renal, 0.392 µM. The TGI in the test on IGROV1 ovarian was 3.44 µM; in the test with LOX IMVI melanoma, 5.62 µM; in the test with A549 NSCLC, 11.3 µM; in the test on HS 578T breast it was 16.4 µM; in the test on MDA-MB-435, 5.45 µM; with SK-MEL-2 melanoma, 3.74 µM. Further, the TGI was greater than 37.8 µM in the test on OVCAR-8 ovarian, 0.692 µM with HOP-92 NSCLC, 11.9 µM with M14 melanoma and 5.16 µM in the test on RXF 393 renal.
For `C#C[C@]1(O)CC[C@H]2[C@@H]3CC=C4c5sc(Nc6cc(F)ccc6F)nc5CC[C@]4(C)[C@H]3CC[C@@]21C`, the GI50 with IGROV1 ovarian was 1.68 µM; in the test on LOX IMVI melanoma, 1.49 µM; with A549 NSCLC it was 2.51 µM; in the test on HS 578T breast, 0.424 µM; in the test with MDA-MB-435, 2.07 µM; in the test with SK-MEL-2 melanoma it was 1.59 µM. The GI50 with OVCAR-8 ovarian was 2.63 µM; with HOP-92 NSCLC, 2.06 µM; with M14 melanoma it was 1.28 µM; in the test with RXF 393 renal it was 0.213 µM. The TGI with IGROV1 ovarian came to 3.73 µM; in the test on LOX IMVI melanoma it was 2.87 µM; in the test with A549 NSCLC, 7.86 µM; with HS 578T breast, 7.13 µM; in the test on MDA-MB-435, 4.61 µM; in the test on SK-MEL-2 melanoma, 4.14 µM. Also, the concentration for total growth inhibition (TGI) with OVCAR-8 ovarian came to 12.1 µM; with HOP-92 NSCLC, 5.49 µM; with M14 melanoma, 2.77 µM; in the test on RXF 393 renal, 0.728 µM.

As a reminder, the GI50 is the concentration at which growth is held to half of that of the control. The TGI is the concentration at which net growth stops. A lower TGI goes with greater sensitivity of the cells.
